Results as given in US11926596B2, “Inhibitors of Rho associated coiled-coil containing protein kinase” (KADMON CORPORATION, LLC, priority 2017, dated 2024).
Where two headings read alike, the source gives them in different places.

Key:
[1] = Mouse pharmacokinetic study, plasma and brain distribution 2 hours after dosing; assay type: in vivo; details: for concentration at 2 h / Kp at 2 h: 2 hours post-dose; for Kp at 2 h: brain/plasma, read-out: Brain/Plasma Ratio
Experimental: In a mouse pharmacokinetic study, 2 hours after dosing, animal tissues were harvested to determine the compound distribution.

[2] = test system: luciferase reporter driven by the human ACTA2 gene promoter in NIH3T3 cells; assay: NIH3T3 cells Acta2-promoter driven-luciferase assay; assay type: cell-based; details: plus TGF 1, 24 hr, read-out: NIH3T3, Acta2-luc, IC50
Experimental: NIH3T3 cells Acta2-promoter driven-luciferase assay: A NIH3T3 cell line stably expressing a luciferase reporter driven by the human ACTA2 gene promoter (−1000-1 bp) was established (NIH3T3-Acta2-luciferase). The cells were plated to confluence and treated with the test compounds plus TGF 1 for 24 hr. Cells were then lysed and luciferase activity was measured using the LightSwitch luciferase kit from Active Motif.

[3] = test system: phospho-myosin light chains (ppMlc, Thr18/Ser19) in A7R5 cells; assay: A7R5 in-cell ELISA, phospho-myosin light chain; assay type: cell-based, rat; details: Rattus norvegicus
[4] = test system: ROCK target MYPT1 phosphorylation in HCT116 ROCK1KO and ROCK2KO cells; assay: pMypt (T853) western blotting in HCT116 ROCK1KO and ROCK2KO cells; assay type: cell-based; details: 110 nM, 90 min
Experimental: FIG. 2. […] HCT116 cells with either a ROCK1 or ROCK2 knockout (ROCK1KO and ROCK2KO, respectively) were treated with the inhibitor for 90 min and pMypt (T853) levels were visualized by western blotting.
A CRISPR/CAS9 system was used to create HCT116 cells containing a knock out for either ROCK1 or ROCK2. The ROCK1KO and ROCK2KO cells were treated with the Example 2 compound for 90 min and pMypt (T853) levels were visualized by western blotting.

[5] = target: T1, recombinant ROCK2 (amino acids 1-552) (Homo sapiens, UniProt O75116); assay: Z'-lyte kinase assay, ROCK2; assay type: biochemical
T1 construct: ROCK2 (amino acids 1-552) proteins were purchased from ThermoFisher Scientific; purchased ThermoFisher Scientific
T1 sequence (O75116 1-552): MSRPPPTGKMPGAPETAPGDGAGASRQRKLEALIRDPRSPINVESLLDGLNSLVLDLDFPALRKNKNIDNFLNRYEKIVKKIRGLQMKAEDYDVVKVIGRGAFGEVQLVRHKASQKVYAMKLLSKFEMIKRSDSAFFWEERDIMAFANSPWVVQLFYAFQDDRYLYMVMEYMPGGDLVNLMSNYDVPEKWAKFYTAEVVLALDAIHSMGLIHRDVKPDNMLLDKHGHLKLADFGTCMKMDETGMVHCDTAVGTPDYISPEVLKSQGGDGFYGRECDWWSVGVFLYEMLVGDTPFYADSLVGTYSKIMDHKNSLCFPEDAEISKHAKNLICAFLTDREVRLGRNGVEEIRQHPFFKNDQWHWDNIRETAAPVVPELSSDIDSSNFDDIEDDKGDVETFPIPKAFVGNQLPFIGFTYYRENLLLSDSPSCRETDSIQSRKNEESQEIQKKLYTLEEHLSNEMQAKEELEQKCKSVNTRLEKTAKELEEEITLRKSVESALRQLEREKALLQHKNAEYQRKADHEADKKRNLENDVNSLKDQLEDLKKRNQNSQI

[6] = test system: Human oligodendrocyte/neuron progenitor cells; assay: Human oligodendrocyte/neuron progenitor cell differentiation (Nestin/MAP2 staining); assay type: cell-based; details: cultured 2 & 14 days with or without inhibitor
Experimental: FIG. 3. Human oligodendrocyte/neuron progenitor cells were cultured in vitro with or without ROCK inhibitor (Example 2 compound) for 2 & 14 days. Nestin and MAP2 proteins were visualized by staining with commercial antibodies to identify different stages of neuronal cell differentiation.
Human oligodendrocyte/neuron progenitor cells were cultured in vitro with or without ROCK inhibitor for 2 & 14 days. Nestin and MAP2 proteins were visualized by staining with commercial antibodies to identify different stages of neuronal cell differentiation.

[7] = target: T2, recombinant ROCK1 (amino acids 1-535) (Homo sapiens, UniProt Q13464); assay: Z'-lyte kinase assay, ROCK1; assay type: biochemical
T2 construct: recombinant ROCK1 (amino acids 1-535) and ROCK2; purchased ThermoFisher Scientific
T2 sequence (Q13464 1-535): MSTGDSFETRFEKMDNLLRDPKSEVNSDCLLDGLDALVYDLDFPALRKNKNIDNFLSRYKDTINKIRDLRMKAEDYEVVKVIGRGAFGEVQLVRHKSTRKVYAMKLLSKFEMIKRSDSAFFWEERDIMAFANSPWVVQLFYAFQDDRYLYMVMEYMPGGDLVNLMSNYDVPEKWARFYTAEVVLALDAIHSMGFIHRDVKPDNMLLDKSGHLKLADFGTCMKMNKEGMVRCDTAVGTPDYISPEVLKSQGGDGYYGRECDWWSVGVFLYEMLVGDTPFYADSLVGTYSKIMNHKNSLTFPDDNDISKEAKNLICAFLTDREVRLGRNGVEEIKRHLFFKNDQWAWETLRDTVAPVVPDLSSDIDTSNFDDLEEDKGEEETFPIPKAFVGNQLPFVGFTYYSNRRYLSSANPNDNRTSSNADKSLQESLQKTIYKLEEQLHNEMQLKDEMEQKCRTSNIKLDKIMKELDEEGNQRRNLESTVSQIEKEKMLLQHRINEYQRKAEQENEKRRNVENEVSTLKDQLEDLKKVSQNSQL

[8] = test system: rat oligodendrocytes with rat dorsal root ganglia (DRG) explants; assay: Rat oligodendrocytes with rat dorsal root ganglia (DRG) explants co-culture; assay type: cell-based
From the text: At the same time, the ROCK inhibitor also facilitated axonal support of oligodentrocye by organized manner, which was visualized by staining the mature oligodendrocyte marker MBP.

CNC(C(=O)Nc1ccc2[nH]ncc2c1)c1ccccc1 (centres unmarked) [Example 2, N-(1H-indazol-5-yl)-2-(methylamino)-2-phenylacetamide]
BBB penetrant property ([1]; 2 hours after dosing): excellent
concentration at 2 h ([1]; brain, IV 10 mg base/kg, read-out: Brain Concentration): 699 ng/g
concentration at 2 h ([1]; brain, PO 10 mg base/kg, read-out: Brain Concentration): 700 ng/g
concentration at 2 h ([1]; brain, PO 30 mg base/kg, read-out: Brain Concentration): 2860 ng/g
concentration at 2 h ([1]; brain, PO 100 mg base/kg, read-out: Brain Concentration): 19400 ng/g
Kp at 2 h ([1]; IV 10 mg base/kg): 3.31
Kp at 2 h ([1]; PO 10 mg base/kg): 1.73
Kp at 2 h ([1]; PO 30 mg base/kg): 2.04
Kp at 2 h ([1]; PO 100 mg base/kg): 2.08
concentration at 2 h ([1]; plasma, IV 10 mg base/kg, read-out: Plasma Concentration): 211 ng/mL
concentration at 2 h ([1]; plasma, PO 10 mg base/kg, read-out: Plasma Concentration): 405 ng/mL
concentration at 2 h ([1]; plasma, PO 30 mg base/kg, read-out: Plasma Concentration): 1400 ng/mL
concentration at 2 h ([1]; plasma, PO 100 mg base/kg, read-out: Plasma Concentration): 9290 ng/mL
IC50 [2]: 885 nM
IC50 ([3]; 1.5 h, A7R5 cells, 90 min, read-out: pMLC IC50 A7R5): 304 nM
IC50 ([3]; A7R5 cells, ppMlc (T18/S19), 9 points 2 fold serial dilution, read-out: ppMIc IC50): 304 nM
IC50 ([3]; pMLC in A7R5 cells, read-out: cellular ROCK inhibition IC50): 252 nM
pMypt (T853) levels, MYPT1 phosphorylation [4]: efficiently blocked
IC50 [5]: 21 nM
inhibition at 3 µM ([5]; 3 μM, read-out: ROCK2 % inh): 98.7%
mature neuronal cell marker MAP2 expression [6]: significantly facilitated
neurite outgrowth [6]: improved
IC50 [7]: 25 nM
inhibition at 3 µM ([7]; 3 μM, read-out: ROCK1 % inh): 98.8%
axonal support of oligodendrocyte (MBP / neurofilament staining) [8]: facilitated
cytoskeletal organization / myelin segments (neurofilament staining) [8]: producing many shorter ordered myelin segments
